The source of these data is PubChem BioAssay (NCI).

Common to all, as to test: inhibition of tumour cell growth, NCI panel, 48 h
Experiment [1] concerns HCT-116 colon.
The subject of experiment [2] is IGROV1 ovarian.
For experiment [3], the system named is MALME-3M melanoma.
In experiment [4] the test system is OVCAR-3 ovarian.
The test system of experiment [5] is RXF 393 renal.
Experiment [6] concerns SK-MEL-2 melanoma.
The subject of experiment [7] is SK-OV-3 ovarian.
In experiment [8] the test system is SW-620 colon.
Experiment [9] relates to NCI-H460 lung.
For experiment [10], the system named is PC-3 prostate.

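The compound was tested at five concentrations on cells cultured in 96-well plates, with a 48-hour exposure period. GI50 = concentration required for 50% inhibition of growth. TGI: concentration producing complete growth inhibition.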

For the compound `CC(=O)C(CN(CC(C)C)CC(C)C)C(c1ccccc1)c1c(O)c2ccccc2oc1=O` (configuration not stated), the TGI in [1], in [2], in experiment [3], in experiment [4], in experiment [5] and in experiment [6] was > 100 µM each time. Besides, the TGI in [7] and in [8] was > 100 µM each time.
Take `CCN(CC)CC1c2ccccc2C(CNc2ccccc2)N1C` (configuration not stated): the TGI in experiment [2], in [3], in experiment [9], in [4], in [5] and in [6] was > 100 µM throughout. Also, the TGI in [7] and in experiment [8] was > 100 µM each time.
Turning to `Fc1ccc(C2SCc3nc4ccccc4n32)c(F)c1` (configuration not stated), the TGI in experiment [1], in experiment [2], in [3], in experiment [9], in experiment [4] and in experiment [5] was > 100 µM in each case. In addition, the TGI in [6], in experiment [7] and in experiment [8] was > 100 µM each time.
On to `COC(=O)C1CC2CC(=NNC(N)=O)CC2C1` (configuration not stated), for which the TGI in [1], in experiment [2], in [3], in experiment [9], in experiment [4] and in experiment [5] was > 100 µM in each case. Further, the TGI in experiment [6], in [7] and in experiment [8] was > 100 µM each time.
Turning to `CCCP1(=O)C=C(C)C(=C(Cl)Cl)C(C)=C1` (configuration not stated), the TGI in [1], in experiment [2], in experiment [3], in [9], in [4] and in [5] was > 100 µM in each case. The TGI in [6] is 41 µM; in [8], > 100 µM.
Consider `N#CC1(C(N)=O)C(c2ccc(Cl)cc2)CC(=O)CC1c1ccc(Cl)cc1` (configuration not stated), for which the GI50 in experiment [1] was 14.8 µM; in [2] it was 18.1 µM; in experiment [3] it was 15.7 µM; in experiment [9], 17.4 µM; in [4], 15.8 µM; in [10], 15.9 µM. The GI50 is 16.1 µM in experiment [6], 20.3 µM in [7] and 17.2 µM in experiment [8]. In addition, the TGI came to 28 µM in experiment [1]; 33.7 µM in [2]; 33.4 µM in [3]; 33.4 µM in experiment [9]; 33.4 µM in experiment [4]; 33.7 µM in [10]. Besides, the TGI was found to be 31.1 µM in experiment [6], 45 µM in experiment [7] and 31.1 µM in experiment [8].
With `Cc1c(/C=N/N=C/c2[nH]c(C(=O)OC(C)(C)C)c(C)c2C)[nH]c(C(=O)OC(C)(C)C)c1C`, the TGI in experiment [1], in [2], in experiment [3], in experiment [9], in experiment [4] and in experiment [5] was > 100 µM throughout. Besides, the TGI in [6], in [7] and in experiment [8] was > 100 µM throughout.
Turning to `COc1ccc(-c2cc(Cc3cccs3)c(=O)[nH]n2)cc1`, the TGI in [1], in [2], in experiment [3], in experiment [4], in [5] and in experiment [6] was > 100 µM throughout. Besides, the TGI in [7] and in experiment [8] was > 100 µM throughout.
Consider `CC(=O)Nc1ccc(SC#N)c2c(NC(C)=O)cccc12`, for which the TGI in experiment [1], in experiment [2], in experiment [3], in experiment [9], in experiment [4] and in experiment [5] was > 100 µM each time. In addition, the TGI in experiment [6], in [7] and in experiment [8] was > 100 µM each time.
As for `CCOC(=O)C1C(=S)NC(=O)C1C#N` (configuration not stated), the TGI in experiment [2], in experiment [3], in experiment [9], in [4], in experiment [5] and in [6] was > 100 µM each time. Besides, the TGI in experiment [7] and in experiment [8] was > 100 µM each time.
`Cc1ccc2c(C3Cc4ccccc4N3C(=O)/C=C\C(=O)O)c(C)[nH]c2c1` (configuration not stated): the TGI in experiment [1] was > 100 µM; in experiment [2] it was > 100 µM; in experiment [3], > 100 µM; in experiment [9] it was > 100 µM; in experiment [4] it was 66.8 µM; in experiment [5], 93.8 µM. For the same compound, the values for the TGI in experiment [6], in experiment [7] and in experiment [8] were 36 µM, > 100 µM and > 100 µM, respectively.
Take `Cc1cccc(C)c1NC(=O)/C(=N/NC(N)=S)C(C)C(=O)c1ccc(Cl)cc1` (configuration not stated): the TGI in [1], in experiment [2], in experiment [3], in experiment [9], in [4] and in experiment [6] was > 100 µM throughout. Also, the TGI in experiment [7] and in [8] was > 100 µM each time.
On to `CC#CCC1CCC(OCC)=CC1=O` (configuration not stated), for which the TGI in experiment [1], in [2], in experiment [9], in [4], in [5] and in [6] was > 100 µM throughout. Besides, the TGI in experiment [7] and in [8] was > 100 µM in each case.
As to `COc1ccc(C=O)c([N+](=O)[O-])c1`, the TGI in experiment [1] is 26.4 µM; in [2], > 100 µM; in experiment [3], > 100 µM; in experiment [9], > 100 µM; in experiment [4], > 100 µM; in experiment [5], > 100 µM. In addition, the TGI in experiment [6], in experiment [7] and in experiment [8] was > 100 µM throughout.
As for `Cc1[nH]c2ccccc2c1C(=O)CC1(O)C(=O)Nc2c(Cl)cc(Cl)cc21` (configuration not stated), the TGI in experiment [1] is > 100 µM; in experiment [2], > 100 µM; in [3] it was 36.1 µM; in experiment [9] it was > 100 µM; in [4] it was 44 µM; in [5], 39.2 µM. The TGI is 81 µM in experiment [6], > 100 µM in experiment [7] and 52 µM in experiment [8].
